# Results as given in patent US20230058171A1, “NEW ORAL PHARMACEUTICAL COMPOSITION FOR CANCER THERAPY” (BOEHRINGER INGELHEIM INTERNATIONAL GMBH, priority 2021, published 2023).
# Tests used:
# SJSA-1 xenograft = test: Mouse SJSA-1 xenograft experiment: minimum effective AUC; format: in vivo; details: QW
# Method: (§1) Preliminary pharmacokinetic (PK) data were used as supportive information for the dose decision. The human therapeutic dose was predicted based on a minimum effective AUC0-168 of 30,700 nM*h (QW), which was determined in a mouse SJSA-1 xenograft experiment. For this, the difference in plasma protein binding between human and mouse was taken into account, which translated to an effective AUC0-168 of 11,350 nM*h for QW dosing in humans. The human therapeutic dose was predicted to be 64 mg (free acid) with QW dosing.
# [1] = Human therapeutic dose prediction
# Method: as §1
# patients = test: Trial 1403-0002 combination with ezabenlimab (and anti-LAG3-1): adverse events; details: for AEs leading to Discontinuation: Dose limiting toxicity, % / AEs leading to Discontinuation: Other adverse event, % / Patients with Dose limiting toxicity (cycle one), % / Serious AEs: Cogenital Anomaly or Birth Defect, % / Serious AEs: Is Life Threatening, % / Serious AEs: Other Medically Important Serious Event, % / Serious AEs: Persists of Signif. Disability/Incapacity, % / Serious AEs: Requires or Prolongs Hospitalization, % / Serious AEs: Results in Death, % / Subjects with AEs leading to Discontinuation of trial drug, % / Subjects with AEs leading to dose reduction of trial drug, % / Subjects with any AE, % / Subjects with immune-related AEs, % / Subjects with infusion related reactions, % / Subjects with investigator defined drug-related AEs, % / Subjects with maximum CTC Grade 1, % / Subjects with maximum CTC Grade 2, % / Subjects with maximum CTC Grade 3, % / Subjects with maximum CTC Grade 4, % / Subjects with maximum CTC Grade 5, % / Subjects with serious AEs, %: triple combination D1 q3w
# [2] = double combination with 240 mg ezabenlimab, 15 patients
smiles,measurement,setting,value
"Cc1c(C(=O)O)ccc2c3n(nc12)[C@@H]1[C@H](C3)N(CC2CC2)[C@@]2(C(=O)Nc3cc(Cl)ccc32)[C@H]1c1cccc(Cl)c1F [MDM2-antagonist of formula I, (2′S,3′S,3a'S,10a'S)-6-chloro-3′-(3-chloro-2-fluorophenyl)-1′-(cyclopropylmethyl)-6′-methyl-2-oxo-1,2,3′,3a′,10′,10a′-hexahydro-1′H-spiro[indole-3,2′-pyrrolo[2′,3′:4,5]pyrrolo[1,2-b]indazole]-7′-carboxylic acid]",minimum effective AUC0-168,SJSA-1 xenograft,"30,700 nM*h"
same,Cmax,"[1]; at predicted human therapeutic dose, QW",680 nM
same,predicted human therapeutic dose,"[1]; free acid, QW dosing",64 mg
same,AUC(0-t),"[1]; oral, 64 mg, QW dosing in humans, corrected for plasma protein binding human vs mouse, read-out: effective AUC0-168",11.3 µM·h
same,DLTs reported after cycle 1,patients; [2],Four
same,patients with Grade ≥3 adverse events,patients; [2],eight
same,patients with Grade ≥3 anemia,patients; [2],6 patients
same,patients with Grade ≥3 lymphopenia,patients; [2],3 patients
same,patients with Grade ≥3 thrombocytopenia,patients; [2],4 patients
same,patients with a DLT during cycle 1,"patients; double combination with 240 mg ezabenlimab, 15 patients, Grade 2 neutropenia at 45 mg",One
same,safety profile,"patients; double combination, 30 mg or 45 mg + 240 mg ezabenlimab D1 q3w",manageable safety profile
same,"AEs leading to Discontinuation: Dose limiting toxicity, %",patients; 10 mg,0%
same,"AEs leading to Discontinuation: Other adverse event, %",patients; 10 mg,0%
same,"Patients with Dose limiting toxicity (cycle one), %",patients; 10 mg,0%
same,"Serious AEs: Cogenital Anomaly or Birth Defect, %",patients; 10 mg,0%
same,"Serious AEs: Is Life Threatening, %",patients; 10 mg,0%
same,"Serious AEs: Other Medically Important Serious Event, %",patients; 10 mg,0%
same,"Serious AEs: Persists of Signif. Disability/Incapacity, %",patients; 10 mg,0%
same,"Serious AEs: Requires or Prolongs Hospitalization, %",patients; 10 mg,0%
same,"Serious AEs: Results in Death, %",patients; 10 mg,0%
same,"Subjects with AEs leading to Discontinuation of trial drug, %",patients; 10 mg,0%
same,"Subjects with AEs leading to dose reduction of trial drug, %",patients; 10 mg,0%
same,"Subjects with any AE, %",patients; 10 mg,100%
same,"Subjects with immune-related AEs, %",patients; 10 mg,0%
same,"Subjects with infusion related reactions, %",patients; 10 mg,33.3%
same,"Subjects with investigator defined drug-related AEs, %",patients; 10 mg,100%
same,"Subjects with maximum CTC Grade 1, %",patients; 10 mg,33.3%
same,"Subjects with maximum CTC Grade 2, %",patients; 10 mg,66.7%
same,"Subjects with maximum CTC Grade 3, %",patients; 10 mg,0%
same,"Subjects with maximum CTC Grade 4, %",patients; 10 mg,0%
same,"Subjects with maximum CTC Grade 5, %",patients; 10 mg,0%
same,"Subjects with serious AEs, %",patients; 10 mg,0%
same,"AEs leading to Discontinuation: Dose limiting toxicity, %",patients; 20 mg,0%
same,"AEs leading to Discontinuation: Other adverse event, %",patients; 20 mg,0%
same,"Patients with Dose limiting toxicity (cycle one), %",patients; 20 mg,0%
same,"Serious AEs: Cogenital Anomaly or Birth Defect, %",patients; 20 mg,0%
same,"Serious AEs: Is Life Threatening, %",patients; 20 mg,0%
same,"Serious AEs: Other Medically Important Serious Event, %",patients; 20 mg,0%
same,"Serious AEs: Persists of Signif. Disability/Incapacity, %",patients; 20 mg,0%
same,"Serious AEs: Requires or Prolongs Hospitalization, %",patients; 20 mg,66.7%
same,"Serious AEs: Results in Death, %",patients; 20 mg,0%
same,"Subjects with AEs leading to Discontinuation of trial drug, %",patients; 20 mg,0%
same,"Subjects with AEs leading to dose reduction of trial drug, %",patients; 20 mg,0%
same,"Subjects with any AE, %",patients; 20 mg,100%
same,"Subjects with immune-related AEs, %",patients; 20 mg,33.3%
same,"Subjects with infusion related reactions, %",patients; 20 mg,0%
same,"Subjects with investigator defined drug-related AEs, %",patients; 20 mg,100%
same,"Subjects with maximum CTC Grade 1, %",patients; 20 mg,0%
same,"Subjects with maximum CTC Grade 2, %",patients; 20 mg,0%
same,"Subjects with maximum CTC Grade 3, %",patients; 20 mg,100%
same,"Subjects with maximum CTC Grade 4, %",patients; 20 mg,0%
same,"Subjects with maximum CTC Grade 5, %",patients; 20 mg,0%
same,"Subjects with serious AEs, %",patients; 20 mg,66.7%
same,"AEs leading to Discontinuation: Dose limiting toxicity, %",patients; 30 mg,0%
same,"AEs leading to Discontinuation: Other adverse event, %",patients; 30 mg,0%
same,"Patients with Dose limiting toxicity (cycle one), %",patients; 30 mg,0%
same,"Serious AEs: Cogenital Anomaly or Birth Defect, %",patients; 30 mg,0%
same,"Serious AEs: Is Life Threatening, %",patients; 30 mg,0%
same,"Serious AEs: Other Medically Important Serious Event, %",patients; 30 mg,0%
same,"Serious AEs: Persists of Signif. Disability/Incapacity, %",patients; 30 mg,0%
same,"Serious AEs: Requires or Prolongs Hospitalization, %",patients; 30 mg,66.7%
same,"Serious AEs: Results in Death, %",patients; 30 mg,0%
same,"Subjects with AEs leading to Discontinuation of trial drug, %",patients; 30 mg,0%
same,"Subjects with AEs leading to dose reduction of trial drug, %",patients; 30 mg,33.3%
same,"Subjects with any AE, %",patients; 30 mg,100%
same,"Subjects with immune-related AEs, %",patients; 30 mg,0%
same,"Subjects with infusion related reactions, %",patients; 30 mg,0%
same,"Subjects with investigator defined drug-related AEs, %",patients; 30 mg,100%
same,"Subjects with maximum CTC Grade 1, %",patients; 30 mg,0%
same,"Subjects with maximum CTC Grade 2, %",patients; 30 mg,33.3%
same,"Subjects with maximum CTC Grade 3, %",patients; 30 mg,33.3%
same,"Subjects with maximum CTC Grade 4, %",patients; 30 mg,33.3%
same,"Subjects with maximum CTC Grade 5, %",patients; 30 mg,0%
same,"Subjects with serious AEs, %",patients; 30 mg,66.7%
same,"AEs leading to Discontinuation: Dose limiting toxicity, %",patients; 45 mg,0%
same,"AEs leading to Discontinuation: Other adverse event, %",patients; 45 mg,0%
same,"Patients with Dose limiting toxicity (cycle one), %",patients; 45 mg,0%
same,"Serious AEs: Cogenital Anomaly or Birth Defect, %",patients; 45 mg,0%
same,"Serious AEs: Is Life Threatening, %",patients; 45 mg,0%
same,"Serious AEs: Other Medically Important Serious Event, %",patients; 45 mg,0%
same,"Serious AEs: Persists of Signif. Disability/Incapacity, %",patients; 45 mg,0%
same,"Serious AEs: Requires or Prolongs Hospitalization, %",patients; 45 mg,50.0%
same,"Serious AEs: Results in Death, %",patients; 45 mg,0%
same,"Subjects with AEs leading to Discontinuation of trial drug, %",patients; 45 mg,0%
same,"Subjects with AEs leading to dose reduction of trial drug, %",patients; 45 mg,50.0%
same,"Subjects with any AE, %",patients; 45 mg,100%
same,"Subjects with immune-related AEs, %",patients; 45 mg,0%
same,"Subjects with infusion related reactions, %",patients; 45 mg,0%
same,"Subjects with investigator defined drug-related AEs, %",patients; 45 mg,100%
same,"Subjects with maximum CTC Grade 1, %",patients; 45 mg,0%
same,"Subjects with maximum CTC Grade 2, %",patients; 45 mg,50.0%
same,"Subjects with maximum CTC Grade 3, %",patients; 45 mg,0%
same,"Subjects with maximum CTC Grade 4, %",patients; 45 mg,50.0%
same,"Subjects with maximum CTC Grade 5, %",patients; 45 mg,0%
same,"Subjects with serious AEs, %",patients; 45 mg,50.0%
same,"AEs leading to Discontinuation: Dose limiting toxicity, %",patients; Total,0%
same,"AEs leading to Discontinuation: Other adverse event, %",patients; Total,0%
same,"Patients with Dose limiting toxicity (cycle one), %",patients; Total,0%
same,"Serious AEs: Cogenital Anomaly or Birth Defect, %",patients; Total,0%
same,"Serious AEs: Is Life Threatening, %",patients; Total,0%
same,"Serious AEs: Other Medically Important Serious Event, %",patients; Total,0%
same,"Serious AEs: Persists of Signif. Disability/Incapacity, %",patients; Total,0%
same,"Serious AEs: Requires or Prolongs Hospitalization, %",patients; Total,45.5%
same,"Serious AEs: Results in Death, %",patients; Total,0%
same,"Subjects with AEs leading to Discontinuation of trial drug, %",patients; Total,0%
same,"Subjects with AEs leading to dose reduction of trial drug, %",patients; Total,18.2%
same,"Subjects with any AE, %",patients; Total,100%
same,"Subjects with immune-related AEs, %",patients; Total,9.1%
same,"Subjects with infusion related reactions, %",patients; Total,9.1%
same,"Subjects with investigator defined drug-related AEs, %",patients; Total,100%
same,"Subjects with maximum CTC Grade 1, %",patients; Total,9.1%
same,"Subjects with maximum CTC Grade 2, %",patients; Total,36.4%
same,"Subjects with maximum CTC Grade 3, %",patients; Total,36.4%
same,"Subjects with maximum CTC Grade 4, %",patients; Total,18.2%
same,"Subjects with maximum CTC Grade 5, %",patients; Total,0%
same,"Subjects with serious AEs, %",patients; Total,45.5%
